From US20100029682A1, “NOVEL CHROMENE AND THIOCHROMENE CARBOXAMIDE DERIVATIVES, METHODS FOR PREPARING SAME AND THERAPEUTIC APPLICATIONS OF SAME” (priority 2006, published 2010) come the findings set out here.

Structures can show the parent of a compound that is named as a salt.

Data set [1] addresses α1-adrenergic receptor. Description: inhibition of prazocine[3H] binding in rat brain tissue. As for the experimental part: (§1) The activity of derivatives of formula 1 as DRD3 ligands, modulators of the activity of DRD3 according to the invention, was evaluated on cells expressing human recombinant DRD3. […] These same compounds show an apparent affinity for the dopamine D2 receptor that is 100 to 500 times weaker. These same compounds have an affinity for the α1 adrenergic receptor that is 20 to 500 times weaker than that for the D3 receptor. The compounds of formula 1 are either antagonists (intrinsic activity<0.10), partial agonists (0.2<intrinsic activity<0.6) or full agonists (intrinsic activity>0.8). The biological results relative to certain compounds of formula 1 are presented in table 2 at the end of the description.

The target of data set [2] is T1, dopamine D2 receptor (Homo sapiens, UniProt P14416).
T1 construct: expressed in transfected cells
T1 sequence (P14416 whole entry, species assumed): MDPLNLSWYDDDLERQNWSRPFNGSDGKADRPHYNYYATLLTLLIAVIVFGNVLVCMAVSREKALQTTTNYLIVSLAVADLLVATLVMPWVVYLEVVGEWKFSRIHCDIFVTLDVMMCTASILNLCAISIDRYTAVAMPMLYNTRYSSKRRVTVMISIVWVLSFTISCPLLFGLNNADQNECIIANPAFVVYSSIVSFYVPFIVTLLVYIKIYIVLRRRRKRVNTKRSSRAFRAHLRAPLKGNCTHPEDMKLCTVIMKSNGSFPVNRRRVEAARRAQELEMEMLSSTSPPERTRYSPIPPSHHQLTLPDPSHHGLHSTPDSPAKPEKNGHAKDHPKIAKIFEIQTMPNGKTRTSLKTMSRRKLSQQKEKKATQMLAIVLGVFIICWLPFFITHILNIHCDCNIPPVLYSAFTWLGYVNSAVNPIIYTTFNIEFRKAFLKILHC
Briefly: inhibition of spiperone[3H] binding in CHO cells, dopamine D2 receptor. As to conditions: read-out: pKi D2 (converted). Here is the method:
as §1

Data set [3] deals with T2, dopamine D3 receptor (Homo sapiens, UniProt P35462).
T2 construct: expressed in transfected cells
T2 sequence (P35462 whole entry): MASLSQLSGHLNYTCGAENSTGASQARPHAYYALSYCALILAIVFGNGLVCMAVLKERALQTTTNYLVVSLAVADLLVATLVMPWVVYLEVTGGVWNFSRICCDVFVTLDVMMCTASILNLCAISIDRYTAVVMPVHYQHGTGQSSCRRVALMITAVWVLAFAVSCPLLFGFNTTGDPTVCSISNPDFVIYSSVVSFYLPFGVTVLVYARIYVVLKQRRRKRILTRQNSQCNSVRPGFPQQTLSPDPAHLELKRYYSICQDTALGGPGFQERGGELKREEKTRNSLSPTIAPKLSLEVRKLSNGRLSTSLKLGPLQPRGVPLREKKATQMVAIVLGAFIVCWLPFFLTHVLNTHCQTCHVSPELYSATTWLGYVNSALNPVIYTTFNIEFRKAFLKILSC
Briefly: inhibition of spiperone[3H] binding in CHO cells, dopamine D3 receptor. The settings on record: read-out: pKi D3 (converted). Here is the method:
as §1

The target of data set [4] is T3, human recombinant DRD3 (Homo sapiens, UniProt P35462).
T3 construct: expressed in transfected cells
T3 sequence (P35462 whole entry): as above
Briefly: intrinsic activity on cells expressing human recombinant DRD3. It is filed as cell-based. The settings on record: antagonists <0.10, partial agonists 0.2-0.6, full agonists >0.8.
Description: As used above, the term “D3 receptor partial agonist” denotes a compound that forms a complex with DRD3 and that acts as a combined agonist-antagonist, i.e., it induces a physiological response whose intensity is less than that of the natural mediator, dopamine. In vitro, in a cell expressing DRD3, a DRD3 partial agonist produced an active response whose maximum intensity was lower than that produced by dopamine or a by a full agonist, for example quinpirole[(4aR-trans)-4,4a,5,6,7,8,8a,9 octahydro-5-propyl-1H (or 2H)-pyrazolo(3,4-g)quinoline]. A DRD3 partial agonist can also partially prevent the response produced by dopamine or by its full agonists. In vivo, a DRD3 partial agonist produces dopaminergic responses, particularly when dopamine levels are lowered, as is the case with rats with lesions caused by 6-hydroxydopamine or monkeys injected with 1 methyl-4-phenyl-1,2,3,6-tetrahydropyridine (MPTP). Moreover, a DRD3 partial agonist can act as an antagonist in vivo, particularly when DRD3 is subject to sustained dopamine stimulation.
as §1

On to `COc1ccccc1N1CCN(CCCCNC(=O)C2=Cc3c(Br)ccc(OC)c3OC2)CC1` (as salt: HCl) [Example 50, 5-Bromo-8-methoxy-2H-chromene-3-carboxylic acid {4-[4-(2-methoxyphenyl)piperazin-1-yl]-butyl}-amide], for which the melting point was determined as 176 °C. `COc1ccc(Br)c2c1OCC(C(=O)NCCCCN1CCN(c3cccc(Cl)c3Cl)CC1)=C2` (as salt: HCl) [Example 51, 5-Bromo 8 methoxy-2H-chromene-3-carboxylic acid {4-[4-(2,3-dichlorophenyl)-piperazin-1-yl]-butyl}-amide]: the melting point was 205 °C.

Take `COc1ccc(Br)c2c1OCC(C(=O)NCCCCN1CCN(c3cccc(C#N)c3)CC1)=C2` (as salt: HCl) [Example 52, 5-Bromo-8-methoxy-2H-chromene-3-carboxylic acid {4-[4-(3-cyanophenyl)piperazin-1-yl]-butyl}-amide]: the melting point was 155 °C. Consider `O=C(NCCCCN1CCN(c2cccc(O)c2)CC1)C1=Cc2ccccc2OC1` (as salt: HCl) [Example 53, 2H Chromene-3-carboxylic acid {4-[4-(3-hydroxyphenyl)-piperazin-1-yl]-butyl}-amide], for which the melting point is 199 °C. `COc1ccc2c(c1)C=C(C(=O)NCCCCN1CCN(c3ccccc3OC)CC1)CO2` (as salt: HCl) [Example 54, 6-Methoxy-2H-chromene-3-carboxylic acid {4-[4-(2-methoxyphenyl)piperazin-1-yl]-butyl}-amide] came in with a melting point of 165 °C.

Regarding `COc1ccc2c(c1)C=C(C(=O)NCCCCN1CCN(c3cccc(Cl)c3Cl)CC1)CO2` (as salt: HCl) [Example 55, 6-Methoxy-2H-chromene-3-carboxylic acid {4-[4-(2,3-dichlorophenyl)-piperazin-1-yl]-butyl}-amide], the melting point is 205 °C. On the same count and under the same terms, the result for `COc1ccc2c(c1)C=C(C(=O)NCCCCN1CCN(c3cccc(C#N)c3)CC1)CO2` (as salt: HCl) [Example 57, 6-Methoxy-2H-chromene-3-carboxylic acid {4-[4-(3-cyanophenyl)-piperazin-1-yl]-butyl}-amide] reads 159 °C; that for `O=C(NCCCCN1CCN(c2ccccc2O)CC1)C1=Cc2ccccc2OC1` (as salt: HCl) [Example 58, 2H-Chromene-3-carboxylic acid {4-[4-(2-hydroxyphenyl)-piperazin-1-yl]-butyl}-amide], 189 °C; that for `O=C(NCCCCN1CCN(c2ccc(O)cc2)CC1)C1=Cc2ccccc2OC1` (as salt: HCl) [Example 59, 2H-Chromene-3-carboxylic acid {4-[4-(4-hydroxyphenyl)-piperazin-1-yl]-butyl}-amide], 236 °C.

Take `COc1ccccc1N1CCN(CCCCNC(=O)C2=Cc3ccccc3OC2)CC1` (as salt: hydrochloride) [Example 1, 2H-Chromene 3-carboxylic acid {4-[4-(2-methoxyphenyl)-piperazin-1-yl]-butyl}-amide]: the melting point amounted to 224 °C. On the same count and under the same terms, the result for `O=C(NCCCCN1CCN(c2cccc(Cl)c2Cl)CC1)C1=Cc2ccccc2OC1` (as salt: hydrochloride) [Example 2, 2H-Chromene-3-carboxylic acid {4-[4-(2,3-dichlorophenyl)-piperazin-1-yl]-butyl}-amide] reads 201 °C; that for `N#Cc1cccc(N2CCN(CCCCNC(=O)C3=Cc4ccccc4OC3)CC2)c1` (as salt: hydrochloride) [Example 14, 2H-Chromene-3-carboxylic acid {4-[4-(3-cyanophenyl)-piperazin-1-yl]-1-butyl}-amide], 229 °C; that for `CCOC(=O)c1cccc(N2CCN(CCCCNC(=O)C3=Cc4ccccc4OC3)CC2)c1` (as salt: hydrochloride) [Example 21, 3-(4-{4-[(2H-Chromene-3-carbonyl)-amino]-butyl}-piperazin-1-yl)-benzoic acid ethyl ester hydrochloride], 229 °C. Compound `CCOC(=O)c1ccc(N2CCN(CCCCNC(=O)C3=Cc4ccccc4OC3)CC2)cc1` (as salt: hydrochloride) [Example 22, 4-(4-{4-[(2H-Chromene-3-carbonyl)-amino]-butyl}-piperazin-1-yl)-benzoic acid ethyl ester hydrochloride] yielded a melting point of 237 °C.

`COc1cc(OC)cc(N2CCN(CCCCNC(=O)C3=Cc4ccccc4OC3)CC2)c1` (as salt: hydrochloride) [Example 23, 2H-Chromene 3 carboxylic acid {4-[4-(3,5-dimethoxyphenyl)piperazin-1-yl]-butyl}-amide hydrochloride] displayed a melting point of 213 °C.

In turn, `O=C(NCCCCN1CCN(c2cccc(Cl)c2Cl)CC1)C1=Cc2cc(Cl)ccc2OC1` (as salt: hydrochloride) [Example 28, 6-Chloro-2H-Chromene-3-carboxylic acid {4-[4-(2,3-dichlorophenyl)-piperazin-1-yl]-butyl}-amide] yielded a melting point of 214 °C. Turning to `COc1ccc(Br)c2c1OCC(C(=O)NCCCCN1CCN(c3ccccc3F)CC1)=C2` (as salt: hydrochloride) [Example 49, 5-Bromo-8-methoxy-2H-chromene-3-carboxylic acid {4-[4 (2-fluorophenyl)-piperazin-1-yl]-butyl}-amide hydrochloride], the melting point was found to be 157 °C.

Consider `O=C(NCCCCN1CCN(c2cccc(Cl)c2Cl)CC1)C1=Cc2ccccc2OC1` [Example 2, 2H-Chromene-3-carboxylic acid {4-[4-(2,3-dichlorophenyl)-piperazin-1-yl]-butyl}-amide], for which, in data set [1], the “pKi α1” value worked out at 7.29. In addition, the figures for the Ki in data set [2] and in data set [3] were 123 nM and 0.813 nM, respectively. As for `O=C(NCCCCN1CCN(c2cccc(C(F)(F)F)c2)CC1)C1=Cc2ccccc2OC1` [Example 16, 2H-Chromene-3-carboxylic acid {4-[4-(3-trifluoromethylphenyl)-piperazin-1-yl]-butyl}-amide], the “pKi α1” value in data set [1] stood at 7.55. For the same compound, the Ki in data set [2] is 447 nM; in data set [3], 2.69 nM. With `N#Cc1cccc(N2CCN(CCCCNC(=O)C3=Cc4ccccc4SC3)CC2)c1` [Example 35, 2H-Thiochromene-3-carboxylic acid {4-[4-(3-cyanophenyl)-piperazin-1-yl]-butyl}-amide], the “pKi α1” value in data set [1] was found to be 7.32. Besides, the Ki in data set [2] is 3160 nM; in data set [3] it was 2.4 nM. Further, in data set [4], the Intrinsic activity worked out at 0.18. For `O=C(NCCCCN1CCN(c2cccc(O)c2)CC1)C1=Cc2ccccc2SC1` [Example 41, 2H-Thiochromene-3-carboxylic acid {4-[4-(3-hydroxyphenyl)-piperazin-1-yl]-butyl}-amide] the same measures were 7.08, 3800 nM, 0.661 nM and 0.64. For `COc1ccc2c(c1)C=C(C(=O)NCCCCN1CCN(c3ccccc3OC)CC1)CO2` [Example 54, 6-Methoxy-2H-chromene-3-carboxylic acid {4-[4-(2-methoxyphenyl)piperazin-1-yl]-butyl}-amide], the “pKi α1” value in data set [1] is on record as 8.05. The Ki is 417 nM in data set [2] and 0.537 nM in data set [3]. On to `COc1ccc2c(c1)C=C(C(=O)NCCCCN1CCN(c3cccc(Cl)c3Cl)CC1)CO2` [Example 55, 6-Methoxy-2H-chromene-3-carboxylic acid {4-[4-(2,3-dichlorophenyl)-piperazin-1-yl]-butyl}-amide], for which the Ki is 251 nM in data set [2] and 0.794 nM in data set [3]. For the compound `CS(=O)(=O)Nc1cccc(N2CCN(CCCCNC(=O)C3=Cc4cc(Cl)ccc4OC3)CC2)c1` [Example 89, 6-chloro-2H-chromene-3-carboxylic acid {4-[4-(3-mesylamino-phenyl}-piperazin-1-yl]-butyl}-amide], in data set [1], the “pKi α1” value is on record as 6.78. Besides, the Ki in data set [2] is 34.7 nM; in data set [3], 0.219 nM. For the same compound, the Intrinsic activity in data set [4] is listed as 0. For `O=C(NCCCCN1CCN(c2cccc3[nH]ccc23)CC1)C1=Cc2ccccc2OC1` [Example 102, 2H-chromene-3-carboxylic acid {4-[4-(1H-indol-4-yl)-piperazin-1-yl]-butyl}-amide] the same measures were 8.05, 93.3 nM, 0.219 nM and 0.59.

With `O=C(NCCCCN1CCN(c2cccc3c2OCCO3)CC1)C1=Cc2ccccc2OC1` [Example 105, 2H-chromene-3-carboxylic acid {4-[4-(2,3-dihydro-benzo[1,4]dioxin-5-yl)-piperazin-1-yl]-butyl}-amide], in data set [1], the “pKi α1” value was found to be 7.81. Also, the results for the Ki in data set [2] and in data set [3] were 132 nM and 0.603 nM, respectively.
